The record followed here is patent US10364245B2 (CHIESI FARMACEUTICI S.p.A., priority 2017, dated 2019).

For this assay, the target named is T1, p38 alpha (Homo sapiens, UniProt Q16539).
T1 construct: purchased Invitrogen PV3304
T1 sequence (Q16539 whole entry): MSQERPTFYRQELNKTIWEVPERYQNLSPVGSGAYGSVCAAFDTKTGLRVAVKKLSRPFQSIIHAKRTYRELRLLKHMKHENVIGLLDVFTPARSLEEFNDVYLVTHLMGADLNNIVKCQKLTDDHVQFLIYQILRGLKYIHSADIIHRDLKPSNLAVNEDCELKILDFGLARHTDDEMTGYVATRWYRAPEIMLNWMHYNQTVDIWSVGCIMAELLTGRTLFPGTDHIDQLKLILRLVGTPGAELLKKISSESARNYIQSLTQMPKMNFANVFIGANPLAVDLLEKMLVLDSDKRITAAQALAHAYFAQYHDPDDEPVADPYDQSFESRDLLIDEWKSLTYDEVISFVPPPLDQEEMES
Description: P38 alpha enzyme inhibition assay (Alphascreen kinase activity assay). In kind it is biochemical. The conditions noted are these: 100 pM p38 alpha, 2 hours preincubation at 25° C., 250 μM ATP, ATF-2 fusion protein; read-out: p38α inhibition. The protocol: P38 Alpha Enzyme Inhibition Assay
The inhibitory activity of compounds was determined using an Alphascreen® (Perkin Elmer) based kinase activity assay. Kinase reactions consisted of 25 mM HEPES pH 7.5, 10 mM MgCl2, 100 μM Na3VO4, 2 mM DTT, 0.05 mg/ml Tween 20, 100 pM p38 alpha (Invitrogen, PV3304), 1% DMSO and 0.3 μg/ml ATF-2 fusion protein (New England Biolabs, 9224). Compounds were incubated under these conditions for 2 hours, at 25° C., prior to the initiation of the kinase activity by the addition of the 250 μM ATP. Reaction volumes were 20 μL. After 1 hr at 25° C. reactions were stopped by the adding 10 μL of 25 mM HEPES pH 7.5 containing 62.5 mM EDTA, 0.05% Triton X-100, 10% BSA and 0.83 ng/uL anti-phospho-ATF2 antibody (Abcam, ab28812). Detection was performed by measuring luminescence following the addition of Alphascreen Donor beads (Perkin Elmer 6765300) and Protein A Alphascreen Acceptor beads (Perkin Elmer 6760137), both at a final concentration of 20 ug/ml. IC50 values were determined from concentration-response curves.
With `COCC(C)(C)c1nnc2ccc(O[C@@H]3CC[C@H](NC(=O)Nc4cc(C(C)(C)C)nc(C(=O)NCC5(N(C)C)CCOCC5)n4)c4ccccc43)cn12` [Example 150, 4-(tert-butyl)-N-((4-(dimethylamino)-tetrahydro-2H-pyran-4-yl)methyl)-6-(3-((1S,4R)-4-((3-(1-methoxy-2-methylpropan-2-yl)-[1,2,4]triazolo[4,3-a]pyridin-6-yl)oxy)-1,2,3,4-tetrahydronaphthalen-1-yl)ureido)pyrimidine-2-carboxamide], the IC50 was 1 to 10 nM.

Regarding `COCC(C)(C)c1nnc2ccc(O[C@@H]3CC[C@H](NC(=O)Nc4cc(C(C)(C)C)nc(C(=O)NCC5(N(C)C)CCCCC5)n4)c4ccccc43)cn12` [Example 153, 4-(tert-butyl)-N-((1-(dimethylamino)cyclohexyl)methyl)-6-(3-((1S,4R)-4-((3-(1-methoxy-2-methylpropan-2-yl)-[1,2,4]triazolo[4,3-a]pyridin-6-yl)oxy)-1,2,3,4-tetrahydronaphthalen-1-yl)ureido)pyrimidine-2-carboxamide], the IC50 is 1 to 10 nM.

Regarding `CCN(C)C(C)(C)CNC(=O)c1nc(NC(=O)N[C@H]2CC[C@@H](Oc3ccc4nnc(C(C)(C)OC)n4c3)c3ccccc32)cc(C(C)(C)C)n1` [Example 156, 4-(tert-butyl)-N-(2-(ethyl(methyl)amino)-2-methylpropyl)-6-(3-((1S,4R)-4-((3-(2-methoxypropan-2-yl)-[1,2,4]triazolo[4,3-a]pyridin-6-yl)oxy)-1,2,3,4-tetrahydronaphthalen-1-yl)ureido)pyrimidine-2-carboxamide], the IC50 is 1 to 10 nM.

Turning to `COC(C)(C)c1nnc2ccc(O[C@@H]3CC[C@H](NC(=O)Nc4cc(C(C)(C)C)nc(C(=O)NCC(C)(C)N5CCN(C)CC5)n4)c4ccccc43)cn12` [Example 157, 4-(tert-butyl)-6-(3-((1S,4R)-4-((3-(2-methoxypropan-2-yl)-[1,2,4]triazolo[4,3-a]pyridin-6-yl)oxy)-1,2,3,4-tetrahydronaphthalen-1-yl)ureido)-N-(2-methyl-2-(4-methylpiperazin-1-yl)propyl)pyrimidine-2-carboxamide], the IC50 was 1 to 10 nM.

For `CN(C)C1(CNC(=O)c2nc(NC(=O)N[C@H]3CC[C@@H](Oc4ccc5nnc(C(C)(C)C)n5c4)c4ccccc43)cc(C(C)(C)C)n2)CCOCC1` [Example 160, 4-(tert-butyl)-6-(3-((1S,4R)-4-((3-(tert-butyl)-[1,2,4]triazolo[4,3-a]pyridm-6-yl)oxy)-1,2,3,4-tetrahydronaphthalen-1-yl)ureido)-N-((4-(dimethylamino)-tetrahydro-2H-pyran-4-yl)methyl)pyrimidine-2-carboxamide], the IC50 lay in the range of 1 to 10 nM.

For the compound `CN(C)C1(CNC(=O)c2nc(NC(=O)N[C@H]3CC[C@@H](Oc4ccc5nnc(C(C)(C)C)n5c4)c4ccccc43)cc(C(C)(C)C)n2)CCCCC1` [Example 161, 4-(tert-butyl)-6-(3-((1S,4R)-4-((3-(tert-butyl)-[1,2,4]-triazolo[4,3-a]pyridin-6-yl)oxy)-1,2,3,4-tetrahydronaphthalen-1-yl)ureido)-N-((1-(dimethylamino)-cyclohexyl)methyl)pyrimidine-2-carboxamide], the IC50 was 1 to 10 nM.

Consider `CN(C)C1(CNC(=O)c2nc(NC(=O)N[C@H]3CC[C@@H](Oc4ccc5nnc(C(C)(C)C)n5c4)c4ccccc43)cc(C(C)(C)C)n2)CCC1` [Example 162, 4-(tert-butyl)-6-(3-((1S,4R)-4-((3-(tert-butyl)-[1,2,4]triazolo[4,3-a]pyridin-6-yl)oxy)-1,2,3,4-tetrahydronaphthalen-1-yl)ureido)-N-((1-(dimethylamino)-cyclobutyl)methyl)pyrimidine-2-carboxamide], for which the IC50 lay in the range of 1 to 10 nM.

With `CN(C)C1(CNC(=O)c2nc(NC(=O)N[C@H]3CC[C@@H](Oc4ccc5nnc(C(C)(C)C)n5c4)c4ccccc43)cc(C(C)(C)C)n2)CCCC1` [Example 163, 4-(tert-butyl)-6-(3-((1S,4R)-4-((3-(tert-butyl)-[1,2,4]-triazolo[4,3-a]pyridin-6-yl)oxy)-1,2,3,4-tetrahydronaphthalen-1-yl)ureido)-N-((1-(dimethylamino)-cyclopentyl)methyl)-pyrimidine-2-carboxamide], the IC50 is 1 to 10 nM.

Consider `CN(CCNC(=O)c1nc(NC(=O)N[C@H]2CC[C@@H](Oc3ccc4nnc(C(C)(C)C)n4c3)c3ccccc32)cc(C(C)(C)C)n1)C1CC1` [Example 164, 4-(tert-butyl)-6-(3-((1S,4R)-4-((3-(tert-butyl)-[1,2,4]triazolo[4,3-a]pyridin-6-yl)oxy)-1,2,3,4-tetrahydronaphthalen-1-yl)ureido)-N-(2-(cyclopropyl(methyl)-amino)ethyl)pyrimidine-2-carboxamide], for which the IC50 fell in the range of 1 to 10 nM.

In the case of `CN(C)[C@H]1CCCC[C@@H]1NC(=O)c1nc(NC(=O)N[C@H]2CC[C@@H](Oc3ccc4nnc(C(C)(C)C)n4c3)c3ccccc32)cc(C(C)(C)C)n1` [Example 165, 4-(tert-butyl)-6-(3-((1S,4R)-4-((3-(tert-butyl)-[1,2,4]triazolo[4,3-a]pyridin-6-yl)oxy)-1,2,3,4-tetrahydronaphthalen-1-yl)ureido)-N-((1S,2S)-2-(dimethylamino)-cyclohexyl)pyrimidine-2-carboxamide], the IC50 was in the range of 1 to 10 nM.

With `COC1CN(CCNC(=O)c2nc(NC(=O)N[C@H]3CC[C@@H](Oc4ccc5nnc(C(C)(C)OC)n5c4)c4ccccc43)cc(C(C)(C)C)n2)C1` [Example 167, 4-(tert-butyl)-N-(2-(3-methoxyazetidin-1-yl)ethyl)-6-(3-((1S,4R)-4-((3-(2-methoxypropan-2-yl)-[1,2,4]triazolo[4,3-a]pyridin-6-yl)oxy)-1,2,3,4-tetrahydronaphthalen-1-yl)ureido)pyrimidine-2-carboxamide], the IC50 lay in the range of 1 to 10 nM.

With `CCC(CC)(CNC(=O)c1nc(NC(=O)N[C@H]2CC[C@@H](Oc3ccc4nnc(C(C)(C)C)n4c3)c3ccccc32)cc(C(C)(C)C)n1)N(C)C` [Example 168, 4-(tert-butyl)-6-(3-((1S,4R)-4-((3-(tert-butyl)-[1,2,4]triazolo[4,3-a]pyridin-6-yl)oxy)-1,2,3,4-tetrahydronaphthalen-1-yl)ureido)-N-(2-(dimethylamino)-2-ethylbutyl)pyrimidine-2-carboxamide], the IC50 was 1 to 10 nM.

Take `COC1CN(C(C)(C)CNC(=O)c2nc(NC(=O)N[C@H]3CC[C@@H](Oc4ccc5nnc(C(C)(C)C)n5c4)c4ccccc43)cc(C(C)(C)C)n2)C1` [Example 170, 4-(tert-butyl)-6-(3-((1S,4R)-4-((3-(tert-butyl)-[1,2,4]triazolo[4,3-a]pyridin-6-yl)oxy)-1,2,3,4-tetrahydronaphthalen-1-yl)ureido)-N-(2-(3-methoxyazetidin-1-yl)-2-methylpropyl)pyrimidine-2-carboxamide]: the IC50 fell in the range of 1 to 10 nM.

Turning to `COC1CN(C(C)(C)CNC(=O)c2nc(NC(=O)N[C@H]3CC[C@@H](Oc4ccc5nnc(C(C)(C)OC)n5c4)c4ccccc43)cc(C(C)(C)C)n2)C1` [Example 172, 4-(tert-butyl)-N-(2-(3-methoxyazetidin-1-yl)-2-rnethylpropyl)-6-(3-((1S,4R)-4-((3-(2-methoxypropan-2-yl)-[1,2,4]triazolo[4,3-a]pyridin-6-yl)oxy)-1,2,3,4-tetrahydronaphthalen-1-yl)ureido)pyrimidine-2-carboxamide], the IC50 was 1 to 10 nM.
